Assay results: a melting point compilation (Tetko et al.; mined from patent text by program, amines drawn as free bases though some values may be those of a salt)

| Structure (SMILES) | melting point |
| --- | --- |
| Cc1nc2c3c(c(CO)cc2n1C)CCC1(Cc2ccccc2C1)N3 | 272 to 274 °C |
| CCCN(CCC)Cc1nc(-c2ncn3c2[C@@H]2CCN2C(=O)c2ccccc2-3)no1 | 208 to 210 °C |
| CCOC(=O)C=Cc1ccc(C=Cc2csc3ccccc23)s1 | 99 to 100 °C |
| Cc1nc2cc(C#N)ccc2n1-c1ccc(C(=O)N(C)[C@@H]2CCNC2)cc1 | 178 to 180 °C |
| CCOC(=O)c1cc(=O)c2ccc(C)cc2o1 | 62 to 64 °C |
| CC1(S(C)(=O)=O)C(I)=C(S(C)(=O)=O)C=CC1C(=O)O (stereo unspecified) | 66 to 67 °C |
| COC(=O)C(C)CC(=O)C(Cc1ccccc1)NC(=O)c1ccccc1 (stereo unspecified) | 97 to 98.5 °C |
| O=[N+]([O-])c1ccc2oc(CBr)cc2c1 | 96 to 98 °C |
| CN(Cc1cc2c(=O)c(C(=O)NCc3ccc(Cl)cc3)cn(C)c2o1)CC(O)c1ccccc1 (stereo unspecified) | 118 to 121 °C |
| Cc1cnc(C)n2c1c(CCSC1=NCCN1)c1ccccc12 | 157 to 159 °C |
| CCCCc1nnc(-c2ccco2)n1Cc1ccc(NC(=O)c2ccccc2C(=O)O)cc1 | 170 to 171 °C |
| COc1cc2nc(N3CCN(C(=O)c4ccco4)CC3)[nH]c2cc1OC | 143 to 145 °C |
| O=C(Nc1cccc(C(F)(F)F)c1)c1ccccc1[N+](=O)[O-] | 134 to 135 °C |
| CC(C)c1cccc(C(C)C)c1NC(=O)CNC(c1ccc(F)cc1)c1ccc(F)cc1 | 150 to 151 °C |
| O=C1CCC(c2ccc(NC(=O)C3(Cl)CC3)cc2)=NN1 | 231 to 232 °C |
| CCOc1cc2c(cc1OC)C(c1ccc(C(=O)N(C(C)C)C(C)C)cc1)=N[C@@H]1CCOC[C@H]21 | 116 to 120 °C |
| CN(C)c1ccc(Cn2nnc(-c3ccc(OC(=O)C(C)(C)C)c(N(C)C)c3)n2)cc1 | 73 to 74 °C |
| COc1cc(OC)c2c(=O)cc(-c3ccc(N(C)C)cc3)oc2c1C1=CCN(C)CC1 | 148 to 150 °C |
| NC1=NN(c2nc3ccccc3s2)C(c2ccc(Cl)cc2)C1 (stereo unspecified) | 273 to 275 °C |
| Cc1cc(NS(C)(=O)=O)cc(C)c1S(=O)(=O)C[N+](=O)[O-] | 138 to 140 °C |
| O=C(c1ccc2nonc2c1)N1CCCC1 | 97.8 to 99.3 °C |
| COc1ccc(Oc2cnc(N)nc2N)c(C(C)C)c1 | 170 to 171 °C |

| Structure (SMILES) | melting point |
| --- | --- |
| O=Cc1cc(O)c(O)c(C=O)c1 | 192 to 195 °C |
| Cc1cc2c(c3c1NC(=O)CC3(C)C)OC(CO)C2 (stereo unspecified) | 165 to 166 °C |
| O=Cc1cccc(/C=C/c2nc(C3CCC3)cs2)c1 | 78 to 80 °C |
| NOCc1nnc2n1-c1ccc(Cl)cc1C(c1ccccc1)=NC2 | 183 to 186 °C |
| O=C(c1ccccc1)c1cccc2cc[nH]c12 | 100 to 104 °C |
| Cc1nc2c(Cl)cc3nc(O)c(O)nc3c2nc1C | > 300 °C |
| CC(C)(CC(=O)O)c1ccccc1SSc1ccccn1 | 122 to 125 °C |
| CCOc1ccc([C@H]2O[C@H](CC(=O)O)C(=O)N(CC(C)(C)C)c3ccc(Cl)cc32)c(OC)c1 (relative stereo) | 230 to 232 °C |
| O=C(c1cocc1C(=O)N1CCCCC1)N1CCCCC1 | 180 to 183 °C |
| C/C=C/c1ccc2c(NCc3ccc(NC(=O)c4ccc(F)cc4)cc3)nc(N(C)C)nc2c1 | 246 °C |
| O=C(c1ccccc1)c1cnn2c(-c3cccc(C(F)(F)F)c3)ccnc12 | 148 to 150 °C |
| CC(C)(C)c1cc(-c2n[nH]c(=S)s2)cc(C(C)(C)C)c1O | 190 to 191 °C |
| CCOCC(=O)C1CCC2C3CCC4CC(O)CCC4(C)C3C(=O)CC12C (stereo unspecified) | 129 to 131 °C |
| C=CCN1CCN(c2cc3c(cc2F)c(=O)c(C(=O)O)cn3CC=C)CC1 | 186 °C |
| CC(C)n1nc(C(=O)C(=O)c2ccccc2)ccc1=O | 71 to 73 °C |
| CC(C)(C)C(=O)Nc1ccc2c(c1)ncn1c(=O)c(C(=O)O)cnc21 | 252 to 256 °C |
| COc1cccc(OC)c1C(=O)NC(=S)NNC(=O)c1cnc2ccccc2c1 | 242 to 243 °C |
| CC(=O)OCCNC(=O)NCc1ccc(-c2csc(N=C(N)N)n2)o1 | 200 to 202 °C |
| NC(=O)NCCC(F)=C(F)F | 86 to 88 °C |
| Cc1cc2ncc(-c3ccc(C(C)(C)C)cc3)c(N)n2n1 | 218 °C |
| CC(C)c1cccc(C(C)C)c1NC(=O)NCC1(Nc2ccc(-c3ccccc3)cc2)CCCC1 | 198 °C |
| O=[N+]([O-])c1cccc(NN=C(c2ccc(O)cc2)c2ccc(O)cc2)c1 | 160 to 162 °C |

Other lines, results leading:

| melting point | Structure (SMILES) |
| --- | --- |
| 206 °C | CC1CCN(c2c(-c3c(F)cc(F)cc3F)c(Cl)nc3nc(S(C)(=O)=O)nn23)CC1 |
| 218 to 219 °C | O=C(Nc1cccc(C(=O)O)c1)OCc1ccccc1 |
| 87 to 91 °C | CN(C)CCOc1ccc(Nc2nccc(-c3c[nH]nc3-c3ccc(OCc4ccccc4)cc3)n2)cc1 |
| 138 to 139 °C | CCCCOc1ccc2cc(Nc3ccc(O)cc3)ccc2c1 |
| 108 to 110 °C | COC(=O)c1ccc2c(CBr)csc2c1 |
| 260 to 264 °C | COc1ccccc1NC(=O)Nc1ccc(CC(=O)O)cc1C |
| 182 °C | CC(SC1COC(c2ccc(C(=O)Nc3c(F)c(F)c(C#N)c(F)c3F)cc2)OC1)C(O)(Cn1cncn1)c1ccc(F)cc1F (stereo unspecified) |
| 74 °C | C#CCOc1cc(OCC#C)ncn1 |
| 49 to 51 °C | Cc1nn(-c2cc(Oc3ccc(OC(C)C(=O)O)cn3)c(Cl)cc2F)c(=O)n1C(F)F (stereo unspecified) |
| 129 °C | CC(C)(C)c1ccc(-c2cc(C=O)cc3c2C(C)(C)CCC3(C)C)cc1 |
| 205 to 207 °C | CNC(=O)c1ccccc1Nc1nc(Nc2ccc3c(c2OC)CCCC(=O)N3CCOC)ncc1Cl |
| 203 to 204 °C | CC(=O)Nc1ccc(-c2c(Cl)c(CCl)nc3sc4c(c23)CCN(Cc2ccccc2)C4)cc1 |
| 108 to 111 °C | O=C1NC(=O)C(Cc2ccc(OCCON=Cc3ccc4ccccc4c3)cc2)S1 (stereo unspecified) |
| 172 °C | O=C(O)COc1nn(-c2ccccc2)cc1-c1ccccc1 |
| 208 °C | CNc1nnc(-c2cc(C(C)(C)C)c(O)c(C(C)(C)C)c2)s1 |
| 164 to 166 °C | CCOC(=O)C(=O)Nc1cc(Cl)cc(NC(=O)C(=O)OCC)n1 |
| 229 °C | Cc1cc2ncc(Nc3ccc(Cl)c(Cl)c3)nc2cc1C |
| 113 to 114 °C | Cc1cc(S(=O)(=O)C[N+](=O)[O-])c(C)cc1Cl |
| 152 to 154 °C | Cc1cc(-n2nc(C(F)(F)F)cc2-c2ccc(S(C)(=O)=O)cc2)ccc1Cl |

| melting point | Structure (SMILES) |
| --- | --- |
| 115 to 117 °C | COc1ccc(N2CCc3c(C)nc4ccccc4c32)c(C)c1 |
| 165 to 167 °C | CCN1CC(NC(=O)Nc2cc(Cl)cc(Cl)c2)CN1CC |
| 81 to 83 °C | O=C1N[C@H](C(=O)NCCCCO)CS1 |
| 170 to 171 °C | Cc1nc(N2CCCC(Cc3cccc(F)c3)C2=O)sc1C(=O)NCc1ccccc1 (stereo unspecified) |
| 229 °C | CSc1ccc(-c2c(C)n[nH]c(=O)c2-c2ncc(Cl)cc2Cl)nc1 |
| 128 to 130 °C | COC(Cc1ccc(OCCc2nc(-c3ccccc3)oc2C)c2ccccc12)C(=O)O (stereo unspecified) |
| 107 to 110 °C | CC1(C2CCCC2)Cc2cc(OCCCCCCC(=O)O)c(Cl)c(Cl)c2C1=O (stereo unspecified) |
| 103 to 104 °C | C=CC(=O)NCc1ccc(Cl)cc1 |
| 153 to 154 °C | Cc1nc(N2CCN(Cc3ccc(C(F)(F)F)cc3)C2=O)sc1CO |
| 63 to 65 °C | CC(C)(C)OC(=O)N1COC(=O)[C@@H]1CSCc1ccccc1 |
| 182 to 184 °C | CCCCc1ncc(/C=C(\Cc2cccs2)C(N)=O)n1Cc1ccccc1Cl |
| > 260 °C | Cn1ncc(C(=O)O)c1C(=O)Nc1ccn2nc(-c3cccc(F)c3)nc2c1 |
| 185 to 187 °C | COc1cc(OC)c2c(c1)S(=O)(=O)N(CCl)C2=O |
| 135 to 137 °C | CCCCCCCC(=O)Nc1cc(Cc2c(Cl)cccc2Cl)nc(Nc2ccc(C#N)cc2)n1 |
| 141 to 142 °C | CCOC(=O)C1CCc2c([nH]c3ccc(Cl)cc23)C1 (stereo unspecified) |
| 164 to 166 °C | CCOC(=O)C1Cc2cc(-c3ccc(NC(C)=O)cc3)ccc2O1 (stereo unspecified) |
| 89 to 91 °C | COCCNc1cccc(C(N)=O)c1 |
| 62 to 64 °C | COc1c(Cl)cc(F)c(I)c1F |
| 161 °C | CCOc1ccc2nc(CO)n(C)c2n1 |

| melting point | Structure (SMILES) |
| --- | --- |
| 97 °C | COC(=O)C(=CN(C)C)c1cc(F)cc(F)c1 |
| 291 to 294 °C | COc1ccc(-c2cnc(C=NN3CC(=O)NC3=O)o2)cc1 |
| 78 to 78.5 °C | CN(CCc1cccc(OCc2ccccc2)c1)c1cnc(-c2ccccc2)c(-c2ccccc2)n1 |
| 57 to 59 °C | CCCSc1cc(-c2ccc(C(F)(F)F)cc2)c(F)cc1[N+](=O)[O-] |
| 60 °C | CS(=O)(=O)c1ccc(-c2cc(O)sc2-c2ccc(F)cc2)cc1 |
| 93 to 94 °C | CC(C)(C)OC(=O)CC(NC(=O)CCNC(=O)Cc1ccc(C#N)cc1)C(=O)NC(Cc1ccccc1)C(=O)OC(C)(C)C (stereo unspecified) |
| 277 °C | Cc1cccc(C)c1CNc1cc(Br)cc2c1nc(C)n2O |
| 147 to 148 °C | COC1(c2ccc(CCc3cc(F)cc(F)c3NC(=O)C(C)(C)C)cc2)CCOCC1 |
| 155 to 157 °C | CC(C)(C)OC(=O)c1ccc([N+](=O)[O-])c(OCCOc2cc(C(=O)OC(C)(C)C)ccc2[N+](=O)[O-])c1 |
| 110 to 112 °C | O=C(N1CCc2cc(S(=O)(=O)Cl)ccc2C1)C(F)(F)F |
| 195 to 197 °C | CC(=O)N(CC1CC(c2ccc(Cl)cc2)=NO1)c1nnc(C)s1 (stereo unspecified) |
| 218 to 221 °C | O=C(Sc1ccc(O)cc1)c1cccc(C(=O)Sc2ccc(O)cc2)c1 |
| 102 to 104 °C | Ic1ccc(N(c2ccccc2)c2ccccc2)cc1 |
| 77 to 79 °C | COc1cc2c(cc1OC)C(C(C)C)C(=O)CC2 (stereo unspecified) |
| 100 to 101 °C | O=Cc1cn(Cc2ccc(OCc3ccccc3)cc2)cc1-c1ccccc1 |
| 59 to 60 °C | CC(C)(C)c1ccc(CCOc2ncnc3cnccc23)cc1 |
| 90 to 95 °C | O[C@H](COc1cccc2[nH]ccc12)CN1CCC(c2c[nH]c3cc(Cl)ccc23)CC1 |
| 178 to 182 °C | Cc1ccc(NCC2CCN(C3CCOCC3)CC2)c(C(=O)Nc2ccc(Cl)cn2)c1 |
| 81 to 82 °C | O=Cc1ccc(OCc2ccccc2)c2c1OCO2 |
